Experimental data published in patent US7868037B2 (PTC Therapeutics, Inc., priority 2004, dated 2011).
Like-named read-outs stand apart in the source and are kept apart here.

Legend:
HCV replicon = assay: microbe, parasite or virus in culture; assay type: cell-based, hepatitis C virus; details: Hepatitis C virus

| SMILES | melting point [°C] | IC50 (HCV replicon; read-out: Replicon IC50 μM) [µM] | IC50 (HCV replicon; read-out: Replicon IC50) [µM] |
| --- | --- | --- | --- |
| CCn1c(C#Cc2ccc(NC(C)=O)cc2)c(C#N)c2ccc(OC)cc21 [Compound 138, N-[4-(3-cyano-1-ethyl-6-methoxy-1H-indol-2-ylethynyl)-phenyl]-acetamide] | 235 to 239 | 0.5 to 2 |  |
| CCc1nnc(-c2cn(CC)c3cc(OC)ccc23)o1 [Compound 54, 1-ethyl-6-methoxy-3-(5-ethyl-[1,3,4]oxadiazol-2-yl)-1H-indole] | 99 to 101 | > 2 |  |
| CCn1c(C#Cc2ccc(NC=O)cc2)c(C#N)c2ccc(OC)cc21 [Compound 241, N-[4-(3-cyano-1-ethyl-6-methoxy-1H-indol-2-ylethynyl)-phenyl]-formamide] | 184 to 188 | > 2 |  |
| CCn1c(-c2cccc(NC(N)=S)c2)c(C#N)c2ccc(OC)cc21 [Compound 767, [3-(3-cyano-1-ethyl-6-methoxy-1H-indol-2-yl)-phenyl]-thiourea] | 204 to 205 | < 0.5 |  |
| CCn1c(-c2ccc(N(CCOC(C)=O)S(C)(=O)=O)cc2)c(C#N)c2ccc(OC)cc21 [Compound 815, N-(2-acetoxyethyl)-N-[4-(3-cyano-1-ethyl-6-methoxy-1H-indol-2-yl)-phenyl]methanesulfonamide] | 153 to 154 | > 2 |  |
| CCOc1ccc2c(C#N)c(-c3ccc(NC(=O)NC(Cc4ccccc4)C(=O)OC)cc3)n(CC)c2c1 (stereo not drawn) [Compound 777, methyl 2-{3-[4-(3-cyano-6-ethoxy-1-ethyl-1H-indol-2-yl)-phenyl]-ureido}-3-phenyl-propionate] | 124 to 127 | < 0.5 |  |
| CCn1c(-c2ccc(OCCN3CCOCC3)cc2)c(C#N)c2ccc(OC)cc21 [Compound 261, 1-ethyl-6-methoxy-2-[4-(2-morpholin-4-yl-ethoxy)-phenyl]-1H-indole-3-carbonitrile] | 138 to 143 | 0.5 to 2 |  |
| CCn1c(-c2ccc(N(C)S(C)(=O)=O)cc2)c(C#N)c2ccc(OC)cc21 [Compound 180, N-[4-(3-cyano-1-ethyl-6-methoxy-1H-indol-2-yl)-phenyl]-N-methyl methanesulfonamide] | 170 to 171 | 0.5 to 2 |  |
| CCn1cc(C#N)c2ccc(Oc3cnccn3)cc21 [Compound 13, 1-ethyl-6-(pyrazin-2-yloxy)-1H-indole-3-carbonitrile] | 161 to 164 | > 2 |  |
| CCn1c(-c2ccc(O)c(NC(=O)CCl)c2)c(C#N)c2ccc(OC)cc21 [Compound 333, 2-chloro-N-[5-(3-cyano-1-ethyl-6-methoxy-1H-indol-2-yl)-2-hydroxyphenyl]acetamide] | 237 to 240 | 0.5 to 2 |  |
| CCOc1ccc(-c2c(C#N)c3ccc(Br)cc3n2CC)cc1 [Compound 831, 6-Bromo-2-(4-ethoxyphenyl)-1-ethyl-1H-indole-3-carbonitrile] | 140 to 141 | > 2 |  |
| CCn1c(-c2ccc(NS(C)(=O)=O)cc2)c(C#N)c2ccc(OCCN3CCOCC3)cc21 [Compound 478, N-{4-[3-cyano-1-ethyl-6-(2-morpholin-4-yl-ethoxy)-1H-indol-2-yl]-phenyl}methanesulfonamide] | 172 to 175 |  | < 0.5 |
| CCn1c(-c2ccc(NS(C)(=O)=O)cc2)c(C#N)c2ccc(OC)cc21 [Compound 129, N-[4-(3-Cyano-1-ethyl-6-methoxy-1H-indol-2-yl)-phenyl]-methanesulfonamide] | 188 to 190 | 0.5 to 2 |  |
| CCn1c(-c2ccc(N(C)S(=O)(=O)CCN3CCOCC3)cc2)c(C#N)c2ccc(OC)cc21 [Compound 668] | 171 to 174 | 0.5 to 2 |  |
| CCn1c(-c2ccc(N3CCCS3(=O)=O)cc2)c(C#N)c2ccc(OCCN3CCOCC3)cc21 [Compound 729, 2-[4-(1,1-dioxo-1λ^6-isothiazolidin-2-yl)-phenyl]-1-ethyl-6-(2-morpholin-4-yl-ethoxy)-1H-indole-3-carbonitrile] | 213 to 217 | > 2 |  |
| CCn1cc(-c2cnco2)c2ccc(C(=O)OC)cc21 [Compound 72, methyl 1-ethyl-3-oxazol-5-yl-1H-indole-6-carboxylate] | 144 to 149 | > 2 |  |
| CCOc1ccc2c(C(=O)N(C)C)c(-c3ccc(N4C(=O)CN(C)C4=O)cc3)n(CC)c2c1 [Compound 781, N,N-Dimethyl-6-ethoxy-1-ethyl-2-[4-(3-methyl-2,5-dioxo-imidazolidin-1-yl)-phenyl]-1H-indole-3-carboxamide] | 207 to 208 | < 0.5 |  |
| CCn1c(-c2ccc(S(C)(=O)=O)cc2)c(C#N)c2ccc(OC)cc21 [Compound 265, 1-ethyl-2-(4-methanesulfonylphenyl)-6-methoxy-1H-indole-3-carbonitrile] | 204 to 206 | > 2 |  |
| CCn1c(-c2ccc(N(CCO)S(C)(=O)=O)cc2)c(C#N)c2ccc(OC)cc21 [Compound 828, N-[4-(3-cyano-1-ethyl-6-methoxy-1H-indol-2-yl)-phenyl]-N-(2-hydroxyethyl)-methanesulfonamide] | 198 to 200 | 0.5 to 2 |  |
| CCn1c(-c2ccc(O)c(N)c2)c(C#N)c2ccc(OC)cc21 [Compound 322, 2-(3-amino-4-hydroxyphenyl)-1-ethyl-6-methoxy-1H-indole-3-carbonitrile] | 223 to 230 | > 2 |  |

| SMILES | melting point [°C] | IC50 (HCV replicon; read-out: Replicon IC50 μM) [µM] | IC50 (HCV replicon; read-out: Replicon IC50) [µM] |
| --- | --- | --- | --- |
| CCn1cc(C#N)c2ccc(NC(=O)OC(C)(C)C)cc21 [Compound 16, t-butyl(3-cyano-1-ethyl-1H-indol-6-yl)-carbamate] | 175 to 177 | > 2 |  |
| CCn1c(C#Cc2ccc(N(C)S(=O)(=O)CC)cc2)c(C#N)c2ccc(OC)cc21 [Compound 157] | 149 to 153 | 0.5 to 2 |  |
| CCNC(=O)NCCOc1ccc(-c2c(C#N)c3ccc(OC)cc3n2CC)cc1 [Compound 279, 1-{2-[4-(3-cyano-1-ethyl-6-methoxy-1H-indol-2-yl)-phenoxy]ethyl}-3-ethyl-urea] | 197 to 202 | > 2 |  |
| CCn1c(-c2ccc(OCCN)cc2)c(C#N)c2ccc(OC)cc21 [Compound 267, 2-[4-(2-aminoethoxy)phenyl]-1-ethyl-6-methoxy-1H-indole-3-carbonitrile] | 106 to 112 | > 2 |  |
| CCOc1ccc2c(C#N)c(-c3ccc(NP(=O)(OCC)OCC)cc3)n(CC)c2c1 [Compound 772] | 211 to 212 | < 0.5 |  |
| CCn1c(I)c(C#N)c2cc([N+](=O)[O-])c(OC)cc21 [Compound 499, 1-ethyl-2-iodo-6-methoxy-5-nitro-1H-indole-3-carbonitrile] | 235 to 250 |  | < 0.5 |
| CCn1c(-c2ccc(N3CCCS3(=O)=O)cc2)c(C#N)c2ccc(OC)cc21 [Compound 84, 2-[4-(1,1-dioxo-1λ^6-isothiazolidin-2-yl)phenyl]-1-ethyl-6-methoxy-1H-indole-3-carbonitrile] | 232 to 237 | < 0.5 |  |
| CCn1c(-c2ccc(OCCNS(C)(=O)=O)cc2)c(C#N)c2ccc(OC)cc21 [Compound 268, N-{2-[4-(3-cyano-1-ethyl-6-methoxy-1H-indol-2-yl)-phenoxy]-ethyl}methanesulfonamide] | 137 to 143 | 0.5 to 2 |  |
| CCOc1ccc2c(C#N)cn(CC)c2c1 [Compound 9, 6-ethoxy-1-ethyl-1H-indole-3-carbonitrile] | 61 to 63 | > 2 |  |
| CCn1cc(-c2ncco2)c2ccc(C(=O)OC)cc21 [Compound 75, methyl 1-ethyl-3-oxazol-2-yl-1H-indole-6-carboxylate] | 118 to 123 | > 2 |  |
| CCn1cc(-c2cc(-c3ccc(OC)cc3)on2)c2ccc(OC)cc21 [Compound 116, 1-ethyl-6-methoxy-3-[5-(4-methoxyphenyl)-isoxazol-3-yl]-1H-indole] | 116 to 118 | > 2 |  |
| CCn1cc(-c2ccno2)c2ccc(OC)cc21 [Compound 58, 1-ethyl-3-isoxazol-5-yl-6-methoxy-1H-indole] | 76 to 79 | > 2 |  |
| CCc1nc(-c2cn(CC)c3cc(OC)ccc23)no1 [Compound 28, 1-ethyl-3-(5-ethyl-[1,2,4]oxadiazol-3-yl)-6-methoxy-1H-indole] | 68 to 70 | 0.5 to 2 |  |
| CCOC(=O)c1c(C)n(-c2ccc(OC)cc2)c2ccc(OC(F)F)cc12 [Compound 49, ethyl 5-difluoromethoxy-1-(4-methoxyphenyl)-2-methyl-1H-indole-3-carboxylate] | 89 to 90 | > 2 |  |
| CCn1c(N2CCN(C(=O)OC(C)(C)C)CC2)c(C#N)c2ccc(C(F)(F)F)cc21 [Compound 785, 4-(3-cyano-1-ethyl-6-trifluoromethyl-1H-indol-2-yl)-piperazine-1-carboxylic acid tert-butyl ester] | 151 to 153 | 0.5 to 2 |  |
| CCn1cc(-c2ccn[nH]2)c2ccc(OC)cc21 [Compound 59, 1-ethyl-6-methoxy-3-(2H-pyrazol-3-yl)-1H-indole] | 81 to 85 | > 2 |  |
| CCn1c(-c2ccc3c(c2)NC(=O)CO3)c(C#N)c2ccc(OC)cc21 [Compound 334, 1-ethyl-6-methoxy-2-(3-oxo-3,4-dihydro-2H-benzo[1,4]oxazin-6-yl)-1H-indole-3-carbonitrile] | 242 to 246 | 0.5 to 2 |  |
| CCCOC(=O)Nc1ccc2c(C#N)cn(-c3ccc(OC)cc3)c2c1 [Compound 97, [3-Cyano-1-(4-methoxyphenyl)-1H-indol-6-yl]-carbamic acid propyl ester] | 164 to 167 | > 2 |  |
| CCn1c(-c2ccc(Nc3nc(-c4ccccc4)nc4ccccc34)cc2)c(C#N)c2ccc(OC)cc21 [Compound 458, 1-ethyl-6-methoxy-2-[4-(2-phenylquinazolin-4-ylamino)-phenyl]-1H-indole-3-carbonitrile] | 272 to 273 |  | > 2 |
